Measured values taken from ChEMBL document CHEMBL3414499, “Characterization of two distinct structural classes of selective aldehyde dehydrogenase 1A1 inhibitors” (J Med Chem, 2015).
The source made the active and inactive calls. The calls are words filed in the database; no cut-off is given here.

Legend:
[1] = biological target: T1, Aldehyde dehydrogenase 1A1 (Homo sapiens) (UniProt P00352); experiment: Inhibition of recombinant human ALDH1A1 using propionaldehyde as substrate at 100 uM preincubated for 2 mins with NAD+ followed by substrate addition by UV-Vis spectrophotometric analysis relative to control
T1 sequence (whole entry): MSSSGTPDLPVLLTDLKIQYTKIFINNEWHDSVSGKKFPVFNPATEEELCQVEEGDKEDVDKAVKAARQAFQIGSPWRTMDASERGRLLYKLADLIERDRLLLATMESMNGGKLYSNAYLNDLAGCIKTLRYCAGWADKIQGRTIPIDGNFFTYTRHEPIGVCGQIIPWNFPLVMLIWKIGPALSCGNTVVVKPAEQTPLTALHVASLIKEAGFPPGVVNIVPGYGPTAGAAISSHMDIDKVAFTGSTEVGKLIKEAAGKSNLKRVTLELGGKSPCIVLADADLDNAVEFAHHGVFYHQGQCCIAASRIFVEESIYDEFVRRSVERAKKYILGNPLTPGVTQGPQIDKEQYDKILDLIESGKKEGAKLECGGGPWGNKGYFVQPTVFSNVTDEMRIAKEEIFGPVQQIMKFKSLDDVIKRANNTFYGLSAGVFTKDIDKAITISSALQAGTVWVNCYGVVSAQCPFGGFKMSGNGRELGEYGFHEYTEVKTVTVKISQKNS

[2] = biological target: T2, Aldehyde dehydrogenase, mitochondrial (Homo sapiens, UniProt P05091); experiment: Inhibition of recombinant human ALDH2 using propionaldehyde as substrate preincubated for 2 mins with NAD+ followed by substrate addition by UV-Vis spectrophotometric analysis
T2 sequence (P05091 whole entry): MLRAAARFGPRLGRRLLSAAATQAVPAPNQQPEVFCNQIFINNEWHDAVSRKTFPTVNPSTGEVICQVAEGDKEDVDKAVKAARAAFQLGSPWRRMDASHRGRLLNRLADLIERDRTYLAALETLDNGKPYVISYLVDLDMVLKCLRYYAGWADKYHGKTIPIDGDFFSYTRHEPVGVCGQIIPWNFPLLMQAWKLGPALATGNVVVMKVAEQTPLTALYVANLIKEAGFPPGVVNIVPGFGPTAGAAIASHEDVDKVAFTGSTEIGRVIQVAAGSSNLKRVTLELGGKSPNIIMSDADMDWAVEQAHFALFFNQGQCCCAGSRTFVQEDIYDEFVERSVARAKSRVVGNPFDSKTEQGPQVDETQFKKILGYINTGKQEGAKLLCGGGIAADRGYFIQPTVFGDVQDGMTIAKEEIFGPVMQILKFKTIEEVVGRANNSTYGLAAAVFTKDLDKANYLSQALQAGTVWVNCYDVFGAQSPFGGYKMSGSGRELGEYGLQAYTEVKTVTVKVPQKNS

[3] = biological target: T3, Retinal dehydrogenase 2 (Homo sapiens) (UniProt O94788); experiment: Activation of recombinant human ALDH1A2 using propionaldehyde as substrate at 100 uM preincubated for 2 mins with NAD+ followed by substrate addition by UV-Vis spectrophotometric analysis
T3 sequence (whole entry): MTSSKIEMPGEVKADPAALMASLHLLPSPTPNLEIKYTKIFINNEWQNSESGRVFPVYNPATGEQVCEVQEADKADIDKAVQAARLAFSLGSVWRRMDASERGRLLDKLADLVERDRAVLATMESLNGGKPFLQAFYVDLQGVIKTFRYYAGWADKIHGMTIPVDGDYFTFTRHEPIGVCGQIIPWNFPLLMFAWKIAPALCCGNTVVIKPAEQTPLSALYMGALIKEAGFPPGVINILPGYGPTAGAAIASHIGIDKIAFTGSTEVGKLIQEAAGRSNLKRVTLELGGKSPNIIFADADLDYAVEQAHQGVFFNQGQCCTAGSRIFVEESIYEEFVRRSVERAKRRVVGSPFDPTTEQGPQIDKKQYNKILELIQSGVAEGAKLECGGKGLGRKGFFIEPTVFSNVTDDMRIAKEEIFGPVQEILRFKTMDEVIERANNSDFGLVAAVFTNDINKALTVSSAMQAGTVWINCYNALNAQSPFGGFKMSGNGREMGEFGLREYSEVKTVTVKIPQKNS

[4] = biological target: T4, Aldehyde dehydrogenase X, mitochondrial (Homo sapiens) (UniProt P30837); experiment: Inhibition of recombinant human ALDH1B1 using propionaldehyde as substrate at 100 uM preincubated for 2 mins with NAD+ followed by substrate addition by UV-Vis spectrophotometric analysis
T4 sequence (whole entry): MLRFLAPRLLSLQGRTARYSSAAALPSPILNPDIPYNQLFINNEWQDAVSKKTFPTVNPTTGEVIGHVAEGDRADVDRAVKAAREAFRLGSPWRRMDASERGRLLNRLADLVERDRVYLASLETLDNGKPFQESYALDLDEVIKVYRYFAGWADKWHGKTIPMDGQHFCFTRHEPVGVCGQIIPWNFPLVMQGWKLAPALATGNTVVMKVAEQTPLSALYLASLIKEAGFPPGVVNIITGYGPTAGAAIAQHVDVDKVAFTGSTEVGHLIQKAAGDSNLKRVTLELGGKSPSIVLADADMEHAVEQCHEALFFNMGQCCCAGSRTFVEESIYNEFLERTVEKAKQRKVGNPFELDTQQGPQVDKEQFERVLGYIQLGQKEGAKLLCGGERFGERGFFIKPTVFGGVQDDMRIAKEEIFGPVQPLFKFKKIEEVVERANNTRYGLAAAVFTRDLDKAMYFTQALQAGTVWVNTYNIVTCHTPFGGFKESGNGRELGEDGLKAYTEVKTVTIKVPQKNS

[5] = biological target: T5, Aldehyde dehydrogenase, dimeric NADP-preferring (Homo sapiens) (UniProt P30838); experiment: Activation of recombinant human ALDH3A1 using benzaldehyde as substrate at 100 uM preincubated for 2 mins with NAD+ followed by substrate addition by UV-Vis spectrophotometric analysis
T5 sequence (whole entry): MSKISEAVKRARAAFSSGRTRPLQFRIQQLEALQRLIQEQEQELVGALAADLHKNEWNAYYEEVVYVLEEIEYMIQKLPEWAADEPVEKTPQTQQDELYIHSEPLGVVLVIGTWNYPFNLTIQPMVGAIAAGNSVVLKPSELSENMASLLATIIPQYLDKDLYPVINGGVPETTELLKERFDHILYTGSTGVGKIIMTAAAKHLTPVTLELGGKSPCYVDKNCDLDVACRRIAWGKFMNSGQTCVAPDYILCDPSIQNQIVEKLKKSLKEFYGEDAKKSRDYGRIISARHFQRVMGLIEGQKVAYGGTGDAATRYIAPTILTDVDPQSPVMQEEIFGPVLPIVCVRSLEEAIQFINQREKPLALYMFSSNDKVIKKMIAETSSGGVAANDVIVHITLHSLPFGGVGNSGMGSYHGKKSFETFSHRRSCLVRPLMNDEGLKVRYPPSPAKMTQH

Row | Imax [1] | IC50 [2] | inhibition [4] | Activity [5] | Compound | also measured
1 | < 70% | > 100 µM |  |  | CC(C)CCn1c(CN(C)Cc2ccccc2)nc2c1c(=O)n(C)c(=O)n2C | 
2 |  |  | inactive |  | Cn1c(=O)c2c(nc(N3CCOCC3)n2Cc2ccccc2F)n(C)c1=O | Activity [3]: Active
3 |  | > 100 µM |  | Active | CCCCn1c(CN2CCN(c3cccc(Cl)c3)CC2)nc2c1c(=O)n(C)c(=O)n2C | 
4 |  |  |  | Active | CC(C)CCn1c(CN2CCN(C(=O)c3ccco3)CC2)nc2c1c(=O)n(C)c(=O)n2C | Activity [3]: Active
5 |  | > 100 µM |  |  | CC(C)CCn1c(CN2CCOCC2)nc2c1c(=O)n(C)c(=O)n2C | 

More lines, now with the values behind:

Row | Compound | Imax [1] | IC50 [2] | inhibition [4] | Activity [5] | also measured
6 | CCCCn1c(Oc2ccc(C(=O)OC)cc2)nc2c1c(=O)n(C)c(=O)n2C | < 70% |  | inactive |  | 
7 | Cn1c(=O)c2c(nc(SCC(N)=O)n2Cc2ccccc2F)n(C)c1=O | < 70% |  | inactive |  | 
8 | Cn1c(=O)c2c(nc(N3CCN(Cc4ccccc4)CC3)n2Cc2cccc(Cl)c2)n(C)c1=O |  |  |  | Active | 
9 | CCN1CCN(Cc2nc3c(c(=O)n(C)c(=O)n3C)n2CC(=O)c2ccccc2)CC1 |  |  | inactive |  | 
10 | Cn1c(=O)c2c(nc(CN3CCC(C(N)=O)CC3)n2CCCc2ccccc2)n(C)c1=O |  | > 100 µM |  |  | 
